# Results from ChEMBL document CHEMBL1201862, “PubChem BioAssay data set” (2004).
# Active and inactive are the calls of the source.
# Key:
# [1] = Vero cell cytotoxicity, dose response, cytotoxicity control for Vif-APOBEC3G degradation inhibitor project, Vero cells (AID 1117358); assay type: functional; conditions: Human immunodeficiency virus 1, Vero
# [2] = growth suppression of PTEN-null colon cells, dose response, cell-based, HCT116 PTEN knockout (AID 1047); assay type: functional;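 further: HCT116 colon tumor cells with PTEN knocked out; cells exposed to compound for 60 hours before readout; potency for loss of cell viability measured by luminescence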
# [3] = growth suppression of beta-catenin-knockout colon cells, dose response, cell-based, HCT116, human colon tumor (AID 1045); assay type: functional;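 further: HCT116 colon tumor cells with beta catenin knocked out; cells exposed to compound for 60 hours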
# Caspase-6 = molecular target: T1, Caspase-6 (Homo sapiens, UniProt P55212); experiment: human caspase-6 inhibitors, dose response, biochemical, VEID-R110 fluorescence, cherry-pick (AID 720632)
# T1 sequence (P55212 whole entry): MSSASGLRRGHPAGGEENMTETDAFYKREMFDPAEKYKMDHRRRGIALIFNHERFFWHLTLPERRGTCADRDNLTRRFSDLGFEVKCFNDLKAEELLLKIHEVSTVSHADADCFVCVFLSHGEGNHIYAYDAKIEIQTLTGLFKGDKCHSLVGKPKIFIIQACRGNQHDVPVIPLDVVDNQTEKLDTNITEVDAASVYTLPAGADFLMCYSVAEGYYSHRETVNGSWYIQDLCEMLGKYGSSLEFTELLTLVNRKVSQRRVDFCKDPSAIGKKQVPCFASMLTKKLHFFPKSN
# [4] = HEp-2 cell cytotoxicity, dose response, cytotoxicity control for RSV inhibitor project, HTS (AID 2410); assay type: functional; conditions: human respiratory syncytial virus
# [5] = Luminescent dose response cell-based high throughput screening assay for inhibitors of the Janus kinase 2 mutant JAK2V617F. [Related pubchem assays: 1446 (Primary screen.), 1521 (Confirmation assay.), 1486 (Counter screen.)]; assay type: functional
# [6] = molecular target: T2, Apoptotic protease-activating factor 1 (Homo sapiens, UniProt O14727); assay type: functional
# T2 sequence (O14727 whole entry): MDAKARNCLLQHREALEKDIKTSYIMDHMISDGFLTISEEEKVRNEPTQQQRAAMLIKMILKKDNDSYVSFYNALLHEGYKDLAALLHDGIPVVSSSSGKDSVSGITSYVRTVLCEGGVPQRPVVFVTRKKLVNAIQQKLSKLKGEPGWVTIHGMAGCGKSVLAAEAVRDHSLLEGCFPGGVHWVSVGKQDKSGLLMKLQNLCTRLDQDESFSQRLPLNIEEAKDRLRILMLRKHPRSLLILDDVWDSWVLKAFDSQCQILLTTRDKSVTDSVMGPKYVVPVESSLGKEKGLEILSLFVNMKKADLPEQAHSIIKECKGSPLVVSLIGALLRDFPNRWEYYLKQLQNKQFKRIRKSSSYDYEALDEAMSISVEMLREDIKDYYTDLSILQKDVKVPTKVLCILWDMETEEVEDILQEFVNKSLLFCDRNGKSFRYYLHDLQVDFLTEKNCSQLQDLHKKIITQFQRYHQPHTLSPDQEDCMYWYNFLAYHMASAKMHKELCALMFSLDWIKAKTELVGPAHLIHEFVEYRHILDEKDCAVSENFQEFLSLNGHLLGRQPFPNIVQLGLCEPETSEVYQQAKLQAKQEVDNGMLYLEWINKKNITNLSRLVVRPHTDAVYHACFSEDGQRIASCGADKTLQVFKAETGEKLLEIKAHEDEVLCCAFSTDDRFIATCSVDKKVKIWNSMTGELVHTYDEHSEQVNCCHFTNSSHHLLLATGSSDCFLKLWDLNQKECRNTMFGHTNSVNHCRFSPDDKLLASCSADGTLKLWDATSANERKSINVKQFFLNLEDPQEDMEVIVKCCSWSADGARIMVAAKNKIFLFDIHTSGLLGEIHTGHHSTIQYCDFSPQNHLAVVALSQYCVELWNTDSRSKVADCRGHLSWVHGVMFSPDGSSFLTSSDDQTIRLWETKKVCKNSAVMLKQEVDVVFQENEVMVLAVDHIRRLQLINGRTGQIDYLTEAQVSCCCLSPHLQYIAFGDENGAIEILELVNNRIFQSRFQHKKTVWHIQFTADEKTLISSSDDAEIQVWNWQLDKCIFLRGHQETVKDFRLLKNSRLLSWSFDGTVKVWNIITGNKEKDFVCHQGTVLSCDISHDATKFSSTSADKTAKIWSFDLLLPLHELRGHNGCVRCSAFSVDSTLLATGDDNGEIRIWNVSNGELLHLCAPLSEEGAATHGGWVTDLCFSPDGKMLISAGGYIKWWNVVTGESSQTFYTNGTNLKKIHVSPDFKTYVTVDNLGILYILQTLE
# Protein Tat = molecular target: T3, Protein Tat (Human immunodeficiency virus type 1 group M subtype B (isolate HXB2)(HIV-1), UniProt P04608); assay type: functional;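 further: tat binding to TAR RNA read out by fluorescence polarization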
# T3 sequence (P04608 whole entry): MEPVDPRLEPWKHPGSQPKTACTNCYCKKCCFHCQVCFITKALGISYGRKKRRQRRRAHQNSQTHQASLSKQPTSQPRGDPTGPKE
# [7] = THP-1 cell cytotoxicity, dose response, cytotoxicity control for Vif-APOBEC3G degradation inhibitor project, THP-1 cells (AID 1117359); assay type: functional; conditions: Human immunodeficiency virus 1, THP-1
# Genome polyprotein = Genome polyprotein (dengue virus type 2, UniProt P29990); experiment: Dengue-2 NS5 methyltransferase inhibitors, primary screen, biochemical, confirmation dose response (AID 588689); assay type: functional
# [8] = inhibitors of Vif binding to APOBEC3G peptide, primary screen, biochemical, TR-FRET, GST-Vif 1-94, biotin-A3G peptide, dose response retest (AID 1117319); assay type: functional;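 further: TR-FRET signal of purified GST-Vif binding a biotinylated A3G peptide; inhibitors lower the FRET signal by blocking Vif and A3G binding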
# [9] = molecular target: T4, Corticotropin-releasing factor receptor 2/Corticotropin-releasing factor-binding protein (Homo sapiens, UniProt P24387+Q13324); experiment: activators of CRF receptor 2 with binding protein – uHTS hits, confirmation (AID 602473); assay type: functional; conditions: read-out: EC50_Mean
# T4 sequence (Q13324 whole entry): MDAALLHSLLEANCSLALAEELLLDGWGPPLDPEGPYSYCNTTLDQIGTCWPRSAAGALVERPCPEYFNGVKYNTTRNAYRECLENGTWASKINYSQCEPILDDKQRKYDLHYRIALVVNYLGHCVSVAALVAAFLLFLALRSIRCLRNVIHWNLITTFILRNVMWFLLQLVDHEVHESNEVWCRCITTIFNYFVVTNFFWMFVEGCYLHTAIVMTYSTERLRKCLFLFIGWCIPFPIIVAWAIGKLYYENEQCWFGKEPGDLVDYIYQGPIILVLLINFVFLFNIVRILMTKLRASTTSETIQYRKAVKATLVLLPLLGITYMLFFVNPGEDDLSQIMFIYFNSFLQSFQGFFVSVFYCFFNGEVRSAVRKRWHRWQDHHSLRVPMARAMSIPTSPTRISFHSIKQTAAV
# T4 sequence (P24387 whole entry): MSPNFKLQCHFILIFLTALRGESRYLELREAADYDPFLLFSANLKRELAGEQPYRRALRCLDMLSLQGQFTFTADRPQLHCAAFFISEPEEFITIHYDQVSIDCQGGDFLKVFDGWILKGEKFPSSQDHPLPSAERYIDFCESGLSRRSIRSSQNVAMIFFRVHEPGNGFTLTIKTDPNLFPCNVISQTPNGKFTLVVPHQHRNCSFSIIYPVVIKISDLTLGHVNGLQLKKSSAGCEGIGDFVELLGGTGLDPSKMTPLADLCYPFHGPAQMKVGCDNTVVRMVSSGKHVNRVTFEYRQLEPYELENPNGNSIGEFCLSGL
# [10] = molecular target: Voltage-gated inwardly rectifying potassium channel KCNH2 (Homo sapiens, UniProt Q12809); experiment: hERG protection from proarrhythmic block, potency, dose response, cell-based, thallium flux (AID 2121); assay type: ADME
# [11] = molecular target: E3 ubiquitin-protein ligase Mdm2 (Homo sapiens, UniProt Q00987); experiment: enhancers of MDM2-luciferase reporter signal, concentration-effect titration, project on inhibitors of MDM2 ubiquitin ligase, cellular assay, luminescent readout, 384-well plate format (AID 1394); assay type: functional;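 further: MDM2 E3 inhibitors raise luminescence so EC50 is for signal enhancement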
# [12] = molecular target: T5, Microphthalmia-associated transcription factor (Homo sapiens, UniProt O75030); experiment: TRPM1 promoter luciferase signal decrease, dose response, MITF inhibitor project, cell-based, SK-MEL-5, cherry-picked, set 3 (AID 493073); assay type: functional
# T5 sequence (O75030 whole entry): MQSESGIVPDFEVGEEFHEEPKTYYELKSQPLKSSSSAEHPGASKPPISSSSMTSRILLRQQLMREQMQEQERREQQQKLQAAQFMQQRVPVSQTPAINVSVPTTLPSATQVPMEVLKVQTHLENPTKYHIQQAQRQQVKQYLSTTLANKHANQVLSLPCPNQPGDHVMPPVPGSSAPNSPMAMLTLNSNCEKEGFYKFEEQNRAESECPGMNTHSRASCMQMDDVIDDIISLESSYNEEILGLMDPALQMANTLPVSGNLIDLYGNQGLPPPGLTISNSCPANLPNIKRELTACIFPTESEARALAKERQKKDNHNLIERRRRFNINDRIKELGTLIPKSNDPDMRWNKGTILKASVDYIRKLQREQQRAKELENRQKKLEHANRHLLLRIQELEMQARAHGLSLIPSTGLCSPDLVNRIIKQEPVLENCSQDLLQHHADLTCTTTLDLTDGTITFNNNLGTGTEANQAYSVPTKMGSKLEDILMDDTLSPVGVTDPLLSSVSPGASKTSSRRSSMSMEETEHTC
# Protein RecA = molecular target: T6, Protein RecA (Mycobacterium tuberculosis, UniProt P9WHJ3); experiment: Fluorescence Cell-Free Homogeneous Dose Retest to Identify Inhibitors of RecA-Intein Splicing Activity. [Related pubchem assays (depositor defined):AID2097, AID2223, AID489010, AID492950]; assay type: functional
# T6 sequence (P9WHJ3 whole entry): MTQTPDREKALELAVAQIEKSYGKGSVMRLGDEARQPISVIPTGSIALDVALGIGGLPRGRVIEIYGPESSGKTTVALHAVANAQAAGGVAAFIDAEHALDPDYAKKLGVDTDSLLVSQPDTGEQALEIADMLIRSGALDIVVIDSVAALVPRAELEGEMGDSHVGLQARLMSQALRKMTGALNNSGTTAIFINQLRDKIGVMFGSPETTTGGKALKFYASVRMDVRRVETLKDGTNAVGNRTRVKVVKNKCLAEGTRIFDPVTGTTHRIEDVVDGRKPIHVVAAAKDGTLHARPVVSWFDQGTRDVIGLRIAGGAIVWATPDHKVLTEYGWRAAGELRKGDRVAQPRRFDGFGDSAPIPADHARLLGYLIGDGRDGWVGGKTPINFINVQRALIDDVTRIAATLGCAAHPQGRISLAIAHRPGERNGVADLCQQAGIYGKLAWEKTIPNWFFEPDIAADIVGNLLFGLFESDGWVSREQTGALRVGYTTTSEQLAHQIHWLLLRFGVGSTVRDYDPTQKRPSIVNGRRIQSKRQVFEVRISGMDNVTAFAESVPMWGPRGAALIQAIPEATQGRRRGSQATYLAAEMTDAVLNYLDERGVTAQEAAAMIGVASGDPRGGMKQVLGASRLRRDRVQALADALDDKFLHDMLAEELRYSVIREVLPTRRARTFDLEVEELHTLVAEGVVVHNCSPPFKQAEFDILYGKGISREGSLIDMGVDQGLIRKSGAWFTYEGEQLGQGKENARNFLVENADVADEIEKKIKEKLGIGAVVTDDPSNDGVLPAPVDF
# [13] = microbe, parasite or virus in culture; assay type: functional; conditions: Mycobacterium tuberculosis
# [14] = molecular target: T7, Replicative DNA helicase DnaB (Mycobacterium tuberculosis, UniProt P9WMR3); experiment: DnaB intein splicing inhibitors, dose response, biochemical, cell-free fluorescence (AID 449749); assay type: functional
# T7 sequence (P9WMR3 whole entry): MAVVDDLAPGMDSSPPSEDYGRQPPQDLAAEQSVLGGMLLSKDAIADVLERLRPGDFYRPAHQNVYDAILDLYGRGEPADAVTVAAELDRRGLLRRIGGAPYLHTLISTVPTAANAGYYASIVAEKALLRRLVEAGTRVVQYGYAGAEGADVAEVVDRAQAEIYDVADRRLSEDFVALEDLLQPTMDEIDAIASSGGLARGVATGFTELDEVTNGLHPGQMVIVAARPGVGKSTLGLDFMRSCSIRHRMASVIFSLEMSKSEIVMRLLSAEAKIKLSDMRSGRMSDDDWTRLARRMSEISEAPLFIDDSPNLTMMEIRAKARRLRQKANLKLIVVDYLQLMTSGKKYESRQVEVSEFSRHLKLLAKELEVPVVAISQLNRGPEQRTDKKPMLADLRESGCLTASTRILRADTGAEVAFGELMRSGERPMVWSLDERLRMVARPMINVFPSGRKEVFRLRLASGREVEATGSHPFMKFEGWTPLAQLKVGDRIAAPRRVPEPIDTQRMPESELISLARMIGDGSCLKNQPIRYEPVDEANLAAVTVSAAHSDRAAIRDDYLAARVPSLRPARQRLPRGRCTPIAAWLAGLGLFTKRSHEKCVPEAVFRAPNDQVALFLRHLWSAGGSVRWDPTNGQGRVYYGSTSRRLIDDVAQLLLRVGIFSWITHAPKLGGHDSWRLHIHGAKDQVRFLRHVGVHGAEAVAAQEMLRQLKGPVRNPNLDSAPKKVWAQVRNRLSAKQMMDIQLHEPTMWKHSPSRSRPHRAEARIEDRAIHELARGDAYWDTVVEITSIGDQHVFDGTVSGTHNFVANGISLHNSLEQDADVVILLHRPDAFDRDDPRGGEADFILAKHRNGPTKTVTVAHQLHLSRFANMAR
# Sequence of Voltage-gated inwardly rectifying potassium channel KCNH2 (Q12809 whole entry): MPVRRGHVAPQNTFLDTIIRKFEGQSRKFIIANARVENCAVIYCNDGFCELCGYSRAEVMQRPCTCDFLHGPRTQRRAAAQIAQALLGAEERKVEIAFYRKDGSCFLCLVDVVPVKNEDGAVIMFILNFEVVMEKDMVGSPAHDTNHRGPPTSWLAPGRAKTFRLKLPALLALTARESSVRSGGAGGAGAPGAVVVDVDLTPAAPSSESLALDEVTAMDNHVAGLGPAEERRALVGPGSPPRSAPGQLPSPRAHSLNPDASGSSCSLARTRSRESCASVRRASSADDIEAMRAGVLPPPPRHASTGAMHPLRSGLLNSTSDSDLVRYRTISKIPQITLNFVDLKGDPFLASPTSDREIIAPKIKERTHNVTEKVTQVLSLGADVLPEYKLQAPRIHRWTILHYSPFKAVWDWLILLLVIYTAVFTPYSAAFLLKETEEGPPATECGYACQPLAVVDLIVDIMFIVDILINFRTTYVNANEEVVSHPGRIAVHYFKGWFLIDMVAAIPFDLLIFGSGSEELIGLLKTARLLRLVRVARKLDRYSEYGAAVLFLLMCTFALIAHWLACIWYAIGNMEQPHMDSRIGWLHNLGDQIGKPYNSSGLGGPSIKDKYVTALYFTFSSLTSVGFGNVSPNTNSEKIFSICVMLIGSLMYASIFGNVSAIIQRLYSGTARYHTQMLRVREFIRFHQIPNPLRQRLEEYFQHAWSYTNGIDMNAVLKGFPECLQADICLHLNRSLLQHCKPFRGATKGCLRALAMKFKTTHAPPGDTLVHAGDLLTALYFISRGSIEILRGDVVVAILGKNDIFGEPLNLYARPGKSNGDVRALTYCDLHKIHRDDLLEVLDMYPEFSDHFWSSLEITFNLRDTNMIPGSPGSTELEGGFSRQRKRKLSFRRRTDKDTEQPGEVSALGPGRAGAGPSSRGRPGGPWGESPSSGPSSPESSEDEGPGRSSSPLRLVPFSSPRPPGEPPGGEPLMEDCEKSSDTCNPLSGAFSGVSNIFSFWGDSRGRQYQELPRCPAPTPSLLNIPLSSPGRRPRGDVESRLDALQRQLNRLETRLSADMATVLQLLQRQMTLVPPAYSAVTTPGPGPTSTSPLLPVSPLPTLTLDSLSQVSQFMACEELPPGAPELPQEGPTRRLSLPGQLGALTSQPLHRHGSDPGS
# Sequence of Genome polyprotein (P29990 2492-3391 limits assumed): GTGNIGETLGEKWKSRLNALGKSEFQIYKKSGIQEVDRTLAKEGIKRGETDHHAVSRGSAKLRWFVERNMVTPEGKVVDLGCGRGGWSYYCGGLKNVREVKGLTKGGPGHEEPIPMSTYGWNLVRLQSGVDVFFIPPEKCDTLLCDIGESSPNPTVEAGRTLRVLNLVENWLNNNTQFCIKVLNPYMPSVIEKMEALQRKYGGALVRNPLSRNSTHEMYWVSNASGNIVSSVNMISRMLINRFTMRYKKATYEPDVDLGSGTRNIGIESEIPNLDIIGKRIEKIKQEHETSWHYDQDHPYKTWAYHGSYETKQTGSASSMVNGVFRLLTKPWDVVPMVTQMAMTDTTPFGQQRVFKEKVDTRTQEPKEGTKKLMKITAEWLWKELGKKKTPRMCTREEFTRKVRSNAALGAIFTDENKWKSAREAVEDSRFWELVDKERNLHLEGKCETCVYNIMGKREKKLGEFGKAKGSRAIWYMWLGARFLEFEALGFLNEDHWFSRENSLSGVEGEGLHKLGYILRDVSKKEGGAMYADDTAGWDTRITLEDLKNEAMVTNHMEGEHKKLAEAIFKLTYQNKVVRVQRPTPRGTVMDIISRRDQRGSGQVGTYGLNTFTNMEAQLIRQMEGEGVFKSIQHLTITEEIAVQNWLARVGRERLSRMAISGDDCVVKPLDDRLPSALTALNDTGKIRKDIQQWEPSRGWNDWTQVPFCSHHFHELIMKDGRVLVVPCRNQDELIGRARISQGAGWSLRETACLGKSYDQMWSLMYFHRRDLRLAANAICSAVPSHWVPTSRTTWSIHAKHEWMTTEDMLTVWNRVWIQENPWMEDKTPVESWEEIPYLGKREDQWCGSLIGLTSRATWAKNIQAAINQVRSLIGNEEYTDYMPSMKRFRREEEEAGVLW
# Sequence of E3 ubiquitin-protein ligase Mdm2 (Q00987 whole entry): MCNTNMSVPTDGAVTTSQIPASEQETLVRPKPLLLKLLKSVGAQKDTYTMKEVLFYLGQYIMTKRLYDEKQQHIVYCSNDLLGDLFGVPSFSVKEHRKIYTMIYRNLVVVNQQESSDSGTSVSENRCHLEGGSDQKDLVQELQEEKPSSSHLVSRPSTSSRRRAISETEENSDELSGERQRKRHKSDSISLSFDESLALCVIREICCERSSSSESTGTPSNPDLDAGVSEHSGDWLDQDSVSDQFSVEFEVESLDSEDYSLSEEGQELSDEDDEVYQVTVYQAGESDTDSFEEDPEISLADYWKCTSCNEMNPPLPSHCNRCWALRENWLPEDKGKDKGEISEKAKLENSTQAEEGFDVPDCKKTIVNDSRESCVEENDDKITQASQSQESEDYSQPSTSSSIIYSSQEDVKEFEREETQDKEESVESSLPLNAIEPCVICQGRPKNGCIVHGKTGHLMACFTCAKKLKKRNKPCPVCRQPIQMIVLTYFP
smiles,measurement,setting,value
CCOC(=O)c1c(C)oc2c1c(/C=N/Cc1ccccn1)c(O)c1ccccc12,CC50,[1],34.4 µM (active)
same,EC50,[2],25 µM (active)
same,EC50,[3],26.4 µM (active)
same,AC50,Caspase-6,11 µM (active)
O=c1cnn([C@@H]2O[C@H](CO)[C@@H](O)[C@H]2O)c(=O)[nH]1 [6-AZAURIDINE],CC50,[4],11.9 µM (active)
same,IC50,[5],2.32 µM (active)
same,IC50,cells,2.28 µM (active)
CCc1ccc(CNc2ccc(O)cc2)cc1,IC50,[6],27.5 µM (active)
same,IC50,Protein Tat,25.4 µM (inconclusive)
same,CC50,[7],26.4 µM (active)
same,IC50,Genome polyprotein,> 100 µM (active)
same,IC50,[8],> 50.6 µM (active)
CCOc1ccc2nc(/N=C/c3nc(-c4ccc(Br)cc4)oc3O)sc2c1,EC50,[9],> 53 µM (inactive)
same,EC50,[10],0.16 µM (active)
Cc1ccccc1Nc1nnc(SCC2CCCCO2)s1 (stereo not given),EC50,[11],8.93 µM (not active)
CC1CCCC(NC(=O)NC(=O)CCl)C1C (stereo not given),AC50,[12],12.4 µM (active)
same,EC50,Protein RecA,6.19 µM (active)
same,IC50,[5],1.02 µM (active)
same,CC50,[13],10.4 µM (active)
same,AC50,[14],23.2 µM (active)
